One series relates to human dermal fibroblasts. Nature of the series: Retinoid-induced fibroblast cytotoxicity. In kind it is cell-based. The following applies: KBM 1.5 mM calcium, 72 hours, up to 5 μg/mL. The procedure: Human dermal fibroblasts are isolated from skin biopsies as described previously and grown in monolayer culture using DMEM supplemented with 10% fetal bovine serum as culture medium (see, e.g., Varani J, et al., J Clin Invest. 1994; 94; Varani J, et al., J. Invest. Dermatol. 94:717-723, 1990). Growth is at 37° C. in a humidified atmosphere containing 5% CO2 and 95% air. For experimental studies, cells are plated at 5×10^4 cells per well in wells of a 24-well culture dish in the same culture medium. One day later, cells are washed and the DMEM culture medium is replaced with Keratinocyte Basal Medium (KBM).
This assay is similar to the fibroblast cytotoxicity assay except that the human dermal fibroblasts are plated in culture medium (KBM) supplemented with a concentration of calcium (1.5 mM) that supports survival on its own. The biologically active retinoids are included in the culture medium and the cells incubated for 72 hours. Under such conditions, there is little net increase in growth with added retinoid, and at high concentrations, cytotoxicity occurs (see, e.g., Varani, J., et al., J. Invest. Dermatol. 101:839-842).
That is, there was little decline in cell numbers compared to control with retinoid concentrations up to 5 μg/mL.

Series [1] can be described thus: Rhino mouse topical treatment: spleen size. The settings on record: 0.1% topical, 21 days. In kind it is in vivo. The text has this: Mouse skin is rather thinner than human skin, and topically applied drugs tend to get into the circulation more readily when applied to mice, especially the hairless mutants, than to humans.
The test system of series [2] is normal human skin in organ culture. Nature of the series: Retinoid-induced skin thickening in human skin organ culture. Format: cell-based. The settings on record: 1 μg/mL, 8 days organ culture. How it is done: Human skin biopsies were incubated for 8 days in organ culture. […] At the end of the incubation period, the tissue was fixed for histology and examined at the light microscopy level after staining with hematoxylin and eosin. […] These abnormalities are not seen in the ex. 1—treated skin section.
Replicate 2-mm punch biopsies (up to 12 per subject) are obtained from hip skin of volunteers 18-70 years of age. The participation of human subjects is approved by the University of Michigan Institutional Review Board and all subjects provide written informed consent prior to their inclusion in the study. The punch biopsies are incubated in wells of a 24 well dish (one tissue piece per 200-500 μL of culture medium). Culture medium consists of KBM. For organ culture, the culture medium is supplemented with calcium chloride to a final calcium concentration of 1.5 mM. One or two wells are typically left as control while the others are treated as desired. Fresh culture medium and treatments are provided at 2-day intervals. Organ culture-conditioned medium collected at day-2 is saved for cytokine assessment or for measure of other bioactive molecules as desired. At the end of the incubation period (typically, day-8), the tissue is fixed in 10% buffered formalin and used for histology. The organ culture protocol used here is virtually identical to that described in several past reports (see, e.g., Varani J, et al., J Clin Invest. 1994; 94:1747-1756; Varani J, et al., Am J Pathol. 1993 January; 142(1):189-98; Lateef H, et al., Am J Pathol. 2004; 165:167-174; Varani J, et al., Exp Mol Pathol. 2004; 77(3):176-83; Varani J, et al., Am J Pathol. 1993 June; 142(6):1813-22; Varani J, et al., Toxicol. Pathol. 35:693-701, 2007; Rittié L, et al., J Invest Dermatol, 126:732-739, 2006).

In series [3] the test system is human skin in organ culture. The settings on record: cited from earlier work.
For series [4], the system named is NB4 cells (PML cell line). The series can be described thus: NB4 cell differentiation (morphology, phase contrast). The settings on record: 50 μg/mL, 48 hours. In kind it is cell-based. The procedure:
FIGS. 8A & FIG. 8B: Morphological change with Compound 2. Control NB4 cells are shown after 48 hours incubation in culture medium in FIG. 8A.
Concentration-dependent and time-dependent growth inhibition studies were carried out in vitro. Cells were plated in wells of a 24-well dish at 5×10^4 cells per well in maintenance media (DMEM+2% fetal bovine serum. Each of the experimental retinoids were added at the desired concentrations and the cells incubated for 3 days. At the end of the incubation period, cells were counted using an electronic particle counter. Viability was determined by exclusion of trypan blue. To assess differentiation, cells were treated for three days with either the desired agent (or control) in culture medium. At the end of the incubation period, the cells were photographed under phase-contrast microscopy.
Inhibition could be seen at both 48 and 72 hours of incubation. […] The polarized, flattened morphology is evidence of differentiation. These studies, thus, indicate that the experimental retinoids have potential as anti-cancer agents.

On to `CC1=C(/C=C/C(C)=C/C=C/C(C)=C/C(=O)O)C(C)(C)CCC1` [ATRA, all-trans retinoic acid, reference compound], for which, in the series with human dermal fibroblasts, the “fibroblast cytotoxicity (decline in cell numbers compared to control)” value was “lack of fibroblast cytotoxicity at concentrations as high as 5 μg/mL”. Besides, in series [1], the “spleen size (splenomegaly)” value is “very marked splenomegaly”. Besides, in series [2], the “epidermal thickening (hyperplastic changes), histology” value is reported as “hyperplastic changes (increased epidermal thickening)” and the “toxicity in the upper epidermis, histology” value is recorded as “evidence of toxicity in the upper epidermis (i.e., incomplete keratinization with loss of granular layer)”. Moreover, in series [3] (human skin organ culture model), the “effect on collagen-degrading enzyme MMP-1 (collagenase 1)” value was “inhibited the major collagen-degrading enzyme (MMP-1, collagenase 1)” and the “procollagen I production” value is “induced procollagen I production”. In series [3] (past studies), the “up-regulation of the pro-inflammatory cytokines that underlie retinoid-induced skin irritation” value is on record as “as expected, did”.

`CC1=C(/C=C/C(C)=C\C=C\C(C)=C\C(=O)N(C)CC(=O)C(C)(C)C)C(C)(C)CCC1` [Example 1, (2E,4E 6Z,8E)-N-(3,3-dimethyl-2-oxobutyl)-N,3,7-trimethyl-9-(2,6,6-trimethylcyclohex-1-en-1-yl)nona-2,4,6,8-tetraenamide]: in series [2], the “epidermal thickening (hyperplastic changes), histology” value is “hyperplastic changes (increased epidermal thickening)” and the “toxicity in the upper epidermis, histology” value is reported as “not seen”.

For `CC1=C(/C=C/C(C)=C\C=C\C(C)=C\C(=O)N(C)CC(=O)c2ccccc2)C(C)(C)CCC1` [Example 2, (2E,4E 6Z,8E)-N,3,7-trimethyl—N-(2-oxo-2-phenylethyl)-9-(2,6,6-trimethylcyclohex-1-en-1-yl)nona-2,4,6,8-tetraenamide], in series [4], the “morphological change (evidence of differentiation)” value was “polarized and flattened”.

The record behind these values is US11148998B2, “Dimethyl-nonatetraenyl-trimethyl-cyclohexyl compounds and uses thereof” (The Regents of the University of Michigan, priority 2017, dated 2021).
